Patent US6299910A, “Methods for identification, purification, and manufacturing of the active constituent in Salvia-miltiorrhiza (dansheng) and the application of this product in enhancing cardiovascular functions” (Techical Sourcing International, Inc., priority 2000, dated 2001)

Key:
[1] = tested on: Red blood cell lysis by H2O2; assay: Effect of Dansheng components on red blood cell lysis by H2O2 (Table IV); type: cell-based; design: key to Effect (red blood cell lysis by H2O2): -: not effective; +: effective; ++: very effective; details: 0.33 mg/ml; for inhibition at 330 µg/mL: Erythrocyte, read-out: Degree of Inhibition (red blood cell lysis by H2O2)
Experimental: These compounds were prepared at 0.33 mg/ml.

[2] = Overall bioactivity in three categories: platelet anti-aggregation, life extension under hypoxia, anti-oxidation; details: anti-oxidation (liver cell protection)
Experimental: (§1) The other seven compounds are evaluated based on: [1] Their anti-oxidant activity, [2] Anti-platelet aggregation, and [3] Endurance under hypoxia conditions.

[3] = tested on: Platelet aggregation; assay: Effect of Dansheng components on platelet anti-aggregation, in vitro (Table VI); type: cell-based; design: key to Effect (platelet anti-aggregation): -: not effective; +: effective; ++: very effective; details: for platelet anti-aggregation potency, in words: Tables II and VI
[4] = tested on: animal; details: Chen et al., 1980; cited from earlier work
[5] = tested on: rats; assay: Life extension / endurance under hypoxia condition (Table III); type: in vivo; details: for extended rats life (up to): hypoxia, dose not given
Experimental: as §1
Compounds 6 and 8 effectively extended rats life up to 78% Other compounds are comparatively lower in this category (see Tables III and V below).

[6] = tested on: rats; assay: Effect of Dansheng components on rats under hypoxia condition (Table V); type: in vivo; design: key to Effect (rats under hypoxia condition): -: not effective; +: effective; ++: very effective; details: 100 mg/kg dose
[7] = tested on: Platelet aggregation; assay: Platelet anti-aggregation effect of Magnesium Salvianolate B and its derivatives, in vitro (Table II); type: cell-based; details: 900 mcg/ml
[8] = tested on: Liver cell; assay: Effect on liver cell MDA amount induced by carbon tetrachloride (antioxidant activity, liver cell protection; Table I); type: cell-based; details: 0.5 micro mole/ml
Description: Table I: Effect of Dansheng Constituents on Liver Cell MDA (Molonyldialdehyde) Amount Induced by Carbon Tetrachloride

Row | Compound | Effect (red blood cell lysis by H2O2) [1] | inhibition at 330 µg/mL [1] [%] | inhibition at 180 µg/mL ([3]; Platelet, 180 mcg/ml, in vitro) [%] | animal endurance capacity under hypoxia conditions, in words [4] | % Inhibition (platelet anti-aggregation) ([3]; 900 mcg/ml, in vitro) [%] | Effect (rats under hypoxia condition) [6] | Life Expanded [6] [%] | also measured
1 | O=C(O)C(O)Cc1ccc(O)c(O)c1 (stereo not shown) [Compound 1, Potassium 3' 4-dihydroxyphenyllactate] | ++ | 100 | 0 |  |  |  |  | bioactivity level, in words [2]: lowest bio-activity level; inhibition at 900 µg/mL ([3]; Platelet, 900 mcg/ml, in vitro): 0%
2 | O=C(/C=C/c1ccc(O)c(O)c1/C=C/c1ccc(O)c(O)c1)OC(Cc1ccc(O)c(O)c1)C(=O)O (stereo not shown) [Salvianolic Acid A] |  |  |  | increase animal endurance capacity under hypoxia conditions |  |  |  | 
3 | Magnesium Isosalvianolate B [Compound 8] | ++ |  |  |  | 20 | ++ | 69 | Degree of Inhibition (red blood cell lysis by H2O2) [1]: 100%; % Inhibition (platelet anti-aggregation) ([3]; 180 mcg/ml, in vitro): 0%; extended rats life (up to) [5]: up to 78%
4 | O=C(O)C(O)Cc1ccc(O)c(O)c1 (stereo not shown) [Danshensu, 3',4 phenyllatic Acid] |  |  |  | increase animal endurance capacity under hypoxia conditions |  |  |  | 
5 | O=C(/C=C/c1ccc(O)c(O)c1)O[C@H](Cc1ccc(O)c(O)c1)C(=O)O [Compound 2, Sodium Rosmarinate] | ++ | 100 | 0 |  |  | ++ | 42 | inhibition at 900 µg/mL ([3]; Platelet, 900 mcg/ml, in vitro): 13%
6 | O=C(/C=C/c1ccc(O)c2c1C(C(=O)O)C(c1ccc(O)c(O)c1)O2)OC(Cc1ccc(O)c(O)c1)C(=O)O (stereo not shown) [Compound 3, Dipotassium Lithospermate] | ++ | 100 | 0 |  |  | + | 23 | inhibition at 900 µg/mL ([3]; Platelet, 900 mcg/ml, in vitro): 18%
7 | O=C(/C=C/c1ccc(O)c2c1[C@H](C(=O)O[C@H](Cc1ccc(O)c(O)c1)C(=O)O)[C@@H](c1ccc(O)c(O)c1)O2)O[C@H](Cc1ccc(O)c(O)c1)C(=O)O [Salvianolic Acid B] |  |  |  | increase animal endurance capacity under hypoxia conditions |  |  |  | 
8 | O=C(/C=C/c1ccc(O)c2c1C(C(=O)OC(Cc1ccc(O)c(O)c1)C(=O)O)C(c1ccc(O)c(O)c1)O2)OC(Cc1ccc(O)c(O)c1)C(=O)O (stereo not shown) [Compound 6, Magnesium Salvianolate B] | ++ |  |  |  | 74 | ++ | 65 | Degree of Inhibition (red blood cell lysis by H2O2) [1]: 100%; bioactivity level, in words [2]: highest bioactivity level; bioactivity level, in words ([2]; listed as Magnesium Salvianolate B): most biologically effective compound; % Inhibition (platelet anti-aggregation) ([3]; 180 mcg/ml, in vitro): 0%; Effect (platelet anti-aggregation) ([3]; 900 mcg/ml, in vitro): +; inhibition at 450 µg/mL ([3]; Platelet, 450 mcg/ml, in vitro): 15%; platelet anti-aggregation potency, in words [3]: highest potency; platelet anti-aggregation potency, in words ([3]; listed as MSV): most potent; inhibition at 900 µg/mL [7]: 94%; % Life Extension ([5]; hypoxia condition, 200 mg/kg dose): 78%; extended rats life (up to) [5]: up to 78%; secretion of MDA from liver cell, in words [8]: decreases the secretion of MDA from liver cell
9 | O=C(/C=C/c1ccc(O)c2c1C(C(=O)O)C(c1ccc(O)c(O)c1)O2)OC(Cc1ccc(O)c(O)c1)C(=O)O (stereo not shown) [Compound 4, Magnesium Lithospermate] | ++ |  |  |  | 28 | + | 45 | Degree of Inhibition (red blood cell lysis by H2O2) [1]: 100%; % Inhibition (platelet anti-aggregation) ([3]; 180 mcg/ml, in vitro): 0%
10 | O=C(/C=C/c1ccc(O)c2c1C(C(=O)OC(Cc1ccc(O)c(O)c1)C(=O)O)C(c1ccc(O)c(O)c1)O2)OC(Cc1ccc(O)c(O)c1)C(=O)O (stereo not shown) [Compound 5, Dipotassium Salvianolate B] | ++ | 100 | 0 |  | 44 |  |  | Effect (platelet anti-aggregation) ([3]; 900 mcg/ml, in vitro): +
11 | O=Cc1ccc(O)c(O)c1 [Protocatechualdehydes, Protocatechualdehyde] |  |  |  | increase animal endurance capacity under hypoxia conditions |  |  |  | 
